Reference: article PMC12383972, “Oral Pharmacokinetic Evaluation of a Microemulsion-Based Delivery System for Novel A190 Prodrugs” (Biomolecules, 2025)
Converted amounts (≈) assume the structure as drawn. Like-named read-outs stand apart in the source and are kept apart here. Blank lines part the entries; values can stand above or below the molecule they belong to.

Tests used:
[1] = test system: PPARα; set-up: method as in PMID 32096640, PMID 39961437; settings: cited from earlier work
[2] = set-up: method as in PMID 32582345; settings: preclinical assessment; cited from earlier work
[3] = test system: CYP450; set-up: method as in PMID 32582345; settings: preclinical assessment; cited from earlier work
[4] = test system: hERG; set-up: method as in PMID 32582345; settings: preclinical assessment; cited from earlier work
[5] = set-up: method as in PMID 39879378; settings: PAMPA, cited from earlier work
[6] = test system: Caco-2 cells; set-up: method as in PMID 39879378; settings: Caco-2, in 0.2% DMSO, 24 h and 48 h; cited from earlier work
[7] = test system: HepG2 cells; set-up: method as in PMID 39879378; settings: HepG2, in 0.2% DMSO, 24 h and 48 h; cited from earlier work
[8] = Bioconversion of prodrugs in rat plasma; format: in vitro ADME; settings: 37 °C; for half-life at 100 μM / Prodrug bioconversion half-life (Rat plasma): 100 μM prodrug; for half-life at 100 μM: pooled rat plasma; for Prodrug bioconversion half-life (Rat plasma): Figure 3E
Experimental: (§1) Conversion of the respective prodrugs to the parent drug A190 was assessed in pooled rat and rabbit plasma. Following pre-incubation of plasma at 37 °C for 5 min, stock solution of each prodrug (10 mM) was spiked into the plasma to reach a final concentration of 100 μM. The mixture was incubated at 37 °C, 200 rpm on a temperature-controlled orbital shaker. Incubation mixture (200 μL) was withdrawn at pre-determined time points, and the reaction was terminated by the addition of 700 μL of ice cold ACN. 100 μL of internal standard (0.5 μg/mL of fenofibric acid) was then spiked, and the samples were vortexed and centrifuged at 10,000× g for 10 min. The resulting supernatants were collected and filtered using PTFE filters and injected into HPLC-UV system. The LC system was a reverse phased Shimadzu Prominence (Kyoto, Japan) using a Pursuit 5 C18 column. Isocratic separation was performed with mobile phase consisting of ACN/water (80/20 v/v) containing 0.1% trifluoroacetic acid and monitored at a UV detection of 227 nm.

[9] = Bioconversion of prodrugs in rabbit plasma; format: in vitro ADME; settings: 37 °C; for half-life at 100 μM / Prodrug bioconversion half-life (Rabbit plasma): 100 μM prodrug; for half-life at 100 μM: pooled rabbit plasma; for Prodrug bioconversion half-life (Rabbit plasma): Figure 3E
Experimental: as §1

[10] = Chemical hydrolysis stability in PBS pH 7.4; format: physicochemical; settings: PBS pH 7.4, 37 °C, 100 μM
Experimental: Chemical hydrolysis stability of each prodrug was assessed in a physiological pH 7.4 using phosphate buffered saline solution (PBS) as previously described. After preincubation of PBS solution at 37 °C for 5 min, stock solution of each prodrug (10 mM) was spiked to a final concentration of 100 μM. The samples were then incubated at 37 °C on a temperature-controlled orbital shaker operating at 200 rpm. At predetermined time points, 200 μL of incubation mixture was withdrawn and quenched with 100 μL of internal standard (0.5 μg/mL of fenofibric acid) and 700 μL ice cold ACN. Drug concentration was analyzed using HPLC-UV method as described earlier to assess the amount of prodrug recovered compared to the starting timepoint.

[11] = Aqueous solubility; format: physicochemical; settings: thermodynamic from solid; deionized water, 25 °C, 48 h equilibrium
Experimental: Aqueous solubility of each prodrug was assessed using deionized water. In brief, an excess amount of each prodrug was placed in a stoppered vial containing 1 mL of water. Each sample was vortexed and kept in an isothermal shaker maintained at 25 ± 1.0 °C to reach equilibrium for 48 h. The resulting mixture was centrifuged at 4000× g for 15 min, and the supernatant was collected and diluted with ACN followed by filtration with a 0.22 μm filter. The drug concentrations for all prodrugs were measured using HPLC-UV. Chromatographic separation was achieved using an Agilent Pursuit XRs 5 C18 column (250 × 4.6 mm) with a UV-detector system. The mobile phase consisted of ACN and water, both containing 0.1% trifluoroacetic acid in a ratio of 80:20 v/v, with a flow rate of 1 mL/min at 25 °C.

[12] = Solubility in microemulsion excipients; format: physicochemical; settings: for solubility at 72 h: thermodynamic from solid, 25 °C
Experimental: Enhancement of drug solubility is the primary factor considered when evaluating ME components. To determine the solubility of A190-PD-60, an excess amount of A190-PD-60 was added to 1 g of each of the tested oils, surfactants and co-surfactants in glass vials with stoppers. A190-PD-60 and excipients were mixed together and vortexed. The mixtures were kept at a temperature of 25 ± 1.0 °C in an isothermal shaker for 72 h to achieve equilibrium. The mixtures were then centrifuged at 10,000× g for 15 min. The resulting supernatants were filtered using […] membrane filters and concentrations of A190-PD-60 in the filtrates were quantified via HPLC-UV analysis. Oils, emulsifiers, and co-emulsifiers with the highest solubilities were chosen for further miscibility analysis. For this, 2 mL of the selected excipients were mixed and vortexed for 10 min, then allowed to equilibrate for 1 h. The resulting mixtures were visually inspected for transparency and phase separation.

[13] = Parallel artificial membrane permeability assay (PAMPA); format: in vitro ADME; settings: PBS pH 6.8, 200 µg/mL donor, 5 h, room temperature
Experimental: Parallel artificial membrane permeability assay (PAMPA) is a widely used screening method to predict the passive intestinal permeability using a phospholipid coated lipophilic membrane which simulates the properties of the intestinal wall. The in vitro intestinal membrane permeability of free A190-PD-60 (dispersed in PBS pH 6.8), A190-PD-60 dispersion (dispersed in a mixture of 1:1 v/v methylcellulose/Tween 80), and A190-PD-60-ME were evaluated using a PAMPA plate (BD BioSciences, San Jose, CA, USA), as described previously. The samples for donor chamber were prepared by diluting free A190-PD-60, A190-PD-60 dispersion, and A190-PD-60-ME with PBS pH 6.8 to a final concentration of 200 µg/mL. […] The concentration of A190-PD-60 which permeated into the acceptor chamber was measured using a HPLC-UV system. The effective permeability coefficient (Pe) was then calculated using the following equation:Pe = −ln(1 − CA[t]/Cequilibrium)/(A × [1/VD + 1/VA] × t)(1) where Pe is the permeability (cm/s), A is the effective filter area (0.228 cm^2), VD is the volume of the donor well (0.2 mL), VA is the volume of the receptor well (0.3 mL), t is the total time of incubation in seconds, CA(t) denotes the concentration of drug in the receptor well at time t, and Cequilibrium represents (CD[t] × VD + CA[t] × VA)/(VD + VA), where CD(t) denotes the concentration of drug in the donor well at time t.

[14] = test system: Caco-2 cells; test: MTT cell viability assay, Caco-2; format: cell-based, human; settings: Caco-2, 50 µM, 24 h and 48 h
Experimental: (§2) To evaluate the cytotoxicity of free A190-PD-60 (in 0.2% DMSO in DMEM), vehicle microemulsion, and A190-PD-60-ME against Caco-2 cells and HepG2 cells, an MTT assay using 3-(4,5-dimethylthiazol-2-yl)-2,5-diphenyltetrazolium bromide was performed as described before. Caco-2 and HepG2 cells were first cultured in DMEM supplemented with 10% FBS, penicillin (100 U/mL), and streptomycin (100 μg/mL) at 37 °C in a 5% CO2 humidified incubator. Upon reaching confluence, cells were trypsinized and seeded at 10 × 10^4 cells/well in 96-well plates. After 48 h, the medium was replaced with fresh dilutions of free A190-PD-60, vehicle microemulsion, or A190-PD-60-ME (0.1–50 µM) in DMEM. Controls included untreated cells and cells treated with 0.2% DMSO in DMEM. Following 24 h and 48 h incubation, the medium was replaced with 100 µL of MTT solution (5 mg/mL in PBS) and incubated for 3 h. The supernatant was then removed, and formazan crystals were dissolved in 100 µL DMSO. Absorbance was measured at 540 nm, and cell viability (%) was calculated as (OD of samples/OD of control) × 100.

[15] = test system: HepG2 cells; test: MTT cell viability assay, HepG2; format: cell-based, human; settings: HepG2, 50 µM, 24 h and 48 h
Experimental: as §2

[16] = BCS classification from solubility and PAMPA permeability; settings: predicted from low solubility and low permeability

- half-life at 100 μM [8]: 9.6 h
- original concentration retained after 120 min in rat plasma ([8]; 100 μM, 120 min): ≥ 80%
- Prodrug bioconversion half-life (Rat plasma) [8]: 9.6 h
- half-life at 100 μM [9]: 7.2 h
- original concentration retained after 120 min in rabbit plasma ([9]; 100 μM, 120 min): ≥ 80%
- Prodrug bioconversion half-life (Rabbit plasma) [9]: 7.2 h
- drug remaining at 2 h [10]: about 40%
SMILES: COC(=O)c1cccc(NCc2ccc(OCc3ccc(F)cc3)c(C)c2)c1 [A190-PD-9, Methyl 3-((4-((4-Fluorobenzyl)oxy)-3-Methylbenzyl)amino)benzoate]

- half-life at 100 μM [8]: 6.8 h
- Prodrug bioconversion half-life (Rat plasma) [8]: 6.8 h
- half-life at 100 μM [9]: 1.4 h
- Prodrug bioconversion half-life (Rabbit plasma) [9]: 1.4 h
- drug remaining at 2 h [10]: 10%
SMILES: Cc1cc(CNc2cccc(C(=O)OC(C)C)c2)ccc1OCc1ccc(F)cc1 [A190-PD-154, Isopropyl 3-((4-((4-Fluorobenzyl)oxy)-3-Methylbenzyl)amino)benzoate]

Further lines, the molecule ahead of its results:

SMILES: Cc1cc(CNc2cccc(C(=O)O)c2)ccc1OCc1ccc(F)cc1 [A190, 3-((4-((4-fluorobenzyl)oxy)-3-methylbenzyl)amino)benzoic acid]
- subtype selectivity ([1]; PPAR-α over γ/δ isoforms): > 2700 fold
- EC50 ([1]; PPARα agonism): < 40 nM
- microsomal metabolic stability [2]: acceptable
- CYP450 liability [3]: absence
- hERG-related cardiotoxicity [4]: absence
- effective permeability (Pe), dispersion form ([5]; dispersion form): 0.13 ± 0.04 × 10^−6 cm/s
- effective permeability (Pe), A190 in PBS ([5]; in PBS): 0.09 ± 0.02 × 10^−6 cm/s
- concentration up to which safe [6]: < 50 µM
- concentration up to which safe [7]: < 50 µM

SMILES: CCOC(=O)c1cccc(NCc2ccc(OCc3ccc(F)cc3)c(C)c2)c1 [A190-PD-14, Ethyl 3-((4-((4-Fluorobenzyl)oxy)-3-Methylbenzyl)amino)benzoate]
- half-life at 100 μM [8]: 2.6 h
- Prodrug bioconversion half-life (Rat plasma) [8]: 2.6 h
- half-life at 100 μM [9]: 8.2 h
- Prodrug bioconversion half-life (Rabbit plasma) [9]: 8.2 h
- drug remaining at 2 h [10]: 10%

SMILES: Cc1cc(CNc2cccc(C(=O)OCc3oc(=O)oc3C)c2)ccc1OCc1ccc(F)cc1 [A190-PD-60, (5-Methyl-2-oxo-1,3-dioxol-4-yl)methyl3-((4-((4-Fluorobenzyl)oxy)-3-methylbenzyl)amino)benzoate]
- solubility at 48 h [11]: 1.4 ± 0.23 µg/mL (≈ 0.00293 mM)
- half-life at 100 μM [8]: 0.3 h
- Prodrug bioconversion half-life (Rat plasma) [8]: 0.3 h
- half-life at 100 μM [9]: 0.5 h
- Prodrug bioconversion half-life (Rabbit plasma) [9]: 0.5 h
- drug remaining at 2 h [10]: over 80%
- solubility in Capryol 90 relative to Maisine oil [12]: 13.9 fold
- solubility in Capryol 90 relative to oleic acid [12]: 4.8 fold
- solubility at 72 h ([12]; Capryol 90, oil or lipid, read-out: Solubility in Capryol 90): 4450 ± 310 µg/mL (≈ 9.32 mM)
- solubility at 72 h ([12]; Cremophor EL, organic solvent or mixture, read-out: Solubility in Cremophor EL): 9050 ± 40 µg/mL (≈ 19 mM)
- solubility at 72 h ([12]; Labrafil M, oil or lipid, read-out: Solubility in Labrafil M): 6580 ± 190 µg/mL (≈ 13.8 mM)
- solubility at 72 h ([12]; Lauroglycol FCC, oil or lipid, read-out: Solubility in Lauroglycol FCC): 4590 ± 50 µg/mL (≈ 9.61 mM)
- solubility at 72 h ([12]; Maisine oil, oil or lipid, read-out: Solubility in Maisine oil): 320 ± 300 µg/mL (≈ 0.67 mM)
- solubility at 72 h ([12]; Oleic acid, oil or lipid, read-out: Solubility in Oleic acid): 920 ± 40 µg/mL (≈ 1.93 mM)
- solubility at 72 h ([12]; Peceol, oil or lipid, read-out: Solubility in Peceol): 2170 ± 70 µg/mL (≈ 4.54 mM)
- solubility at 72 h ([12]; Polypropylene glycol, organic solvent or mixture, read-out: Solubility in Polypropylene glycol): 3790 ± 620 µg/mL (≈ 7.94 mM)
- solubility at 72 h ([12]; Transcutol HP, organic solvent or mixture, read-out: Solubility in Transcutol HP): 14100 ± 140 µg/mL (≈ 29.5 mM)
- solubility at 72 h ([12]; Tween 80, organic solvent or mixture, read-out: Solubility in Tween 80): 9170 ± 70 µg/mL (≈ 19.2 mM)
- Effective Permeability Across Artificial Membrane (Pe) [13]: < 0.1 ×10^−6, cm/s
- Effective Permeability Across Artificial Membrane (Pe) ([13]; listed as A190-PD-60 in PBS): BLD
- cytotoxicity at highest tested concentration [14]: no significant cytotoxicity
- cytotoxicity at highest tested concentration [15]: no significant cytotoxicity
- BCS class [16]: BCS Class IV
